Viability data for 56 compounds are collected here from publication PMC12040169 (PLOS Biology, 2025).

Each structure is given as a SMILES string.

The nature of the data set: in vitro. The following applies: human, hela cells, % viability.
The term viability denotes a read-out of living cells in per cent, often relative to untreated cells. On to `CCCCN(C(C)=O)c1c(CC)nc2ccc(C(=O)NCc3ccccc3OC)cn12` [CBK145761], for which the viability at 28.5 h, 10 µM is 96%. `CCOC(=O)c1cc(C(N)=S)c(C)nc1C(F)(F)F` [CBK028734]: the viability at 28.5 h, 10 µM amounted to 92.8%. `O=C(CCc1ccccc1)N1CCC(c2cccc(Cc3cccc(F)c3)n2)CC1` [CBK286219]: the viability at 28.5 h, 10 µM was 97.5%.

Regarding `CCn1c(=O)[nH]c2cc(C(=O)NCCc3ccccc3)ccc2c1=O` [CBK265773], the viability at 28.5 h, 10 µM came to 95.2%.

Regarding `CN(CCc1cnn(C)c1)C(=O)NCCCN1CCCC1=O` [CBK307008], the viability at 28.5 h, 10 µM was found to be 91.1%. With `CCN1C(=O)c2ccccc2C(=O)[C@@]2(C)CN(C(=O)C(C)C)C[C@@H]12` [CBK281680], the viability at 28.5 h, 10 µM turned out to be 91.8%.

In the case of `COCCN(C)S(=O)(=O)c1cc(C)c(Cl)cc1C` [CBK043867], the viability at 28.5 h, 10 µM was 105%. The figure for `O=C(c1ccc(-c2ccc(OCC3CCN(c4ncccn4)CC3)cn2)cc1)N1CCOCC1` [CBK173183] is 91.8%; for `OC[C@H]1O[C@@H](n2cnc3c(Cl)ncnc32)C[C@H]1O` [CBK201167] it is 99.6%; for `O=C(O)c1cc(S(=O)(=O)NCc2ccc(Cl)cc2Cl)ccc1O` [CBK296924] it is 94.7%.

For the compound `C=CCN(C)C(=O)[C@H]1C[C@@H](O)[C@H](O)[C@@H]2N=C(Nc3ccc(OC)cc3)S[C@@H]21` [CBK288947], the viability at 28.5 h, 10 µM is 97.1%.

For `OC1(c2cccnc2)CCN(CC2(c3ccc(Cl)cc3)CC2)CC1` [CBK282780], the viability at 28.5 h, 10 µM amounted to 93%.

With `CC(CCCC(C)(C)O)NCCO` (centres unmarked) [CBK262340], the viability at 28.5 h, 10 µM is 96.3%. On to `NC(=O)c1c(NC(=O)c2ccc(-c3ccccc3)cc2)sc2c1CCC2` [CBK265747], for which the viability at 28.5 h, 10 µM came to 91.3%.

With `CCn1cc(C(=O)O)c(=O)c2cnc(N3CCN(C(=S)NC(=O)c4c(-c5ccccc5)noc4C)CC3)nc21` [CBK267491], the viability at 28.5 h, 10 µM amounted to 85%. As for `COc1cc(C)c(Nc2cc(-c3cccc(N(C)C)c3)ncn2)cc1OC` [CBK090780], the viability at 28.5 h, 10 µM came to 43.5%.

Turning to `O=C(O)CCCC(=O)N1N=C(c2ccccc2)CC1c1ccc2nccnc2c1` (centres unmarked) [CBK286752], the viability at 28.5 h, 10 µM came out at 89.4%. The figure for `CCOC(=O)CNS(=O)(=O)c1ccc(Cl)c(Cl)c1Cl` [CBK034428] is 92%.

Take `CCCCCc1nc(N)c(-c2cccc(Br)c2)c(C#N)c1CCCC` [CBK026574]: the viability at 28.5 h, 10 µM stood at 118%. Regarding `CS(=O)(=O)Nc1nccnc1N1CCN(c2ccccc2)CC1` [CBK048688], the viability at 28.5 h, 10 µM came out at 91.8%.

As to `NS(=O)(=O)c1ccc(NC(=O)CSc2nc3sc4c(c3c(=O)[nH]2)CCC4)cc1` [CBK265554], the viability at 28.5 h, 10 µM is 103%. For `COc1ccc(C2(CN3CCC(NC(C)=O)CC3)CCCC2)cc1` [CBK283241] the value was 85.4%; for `CS(=O)(=O)N1CCC(C(=O)NNC(=S)Nc2cccc3ccccc23)CC1` [CBK266811], 84.2%. For `Cc1c(C(=O)NCCCCn2ccnc2)[nH]c2ccccc12` [CBK283246] the value was 94.3%.

On to `CN1C(=O)c2ccccc2C(=O)[C@@]2(C)CN(Cc3ccccc3)C[C@@H]12` [CBK284692], for which the viability at 28.5 h, 10 µM is 95.1%. In the case of `Cc1csc(C(Cc2ccsc2)NC(=O)C2CCOCC2)n1` (centres unmarked) [CBK285047], the viability at 28.5 h, 10 µM is 102%. As to `COCc1nc(NCCn2c(C)cc(C)nc2=O)cc(C2CCOC2)n1` (centres unmarked) [CBK307495], the viability at 28.5 h, 10 µM turned out to be 92.6%.

Turning to `O=[N+]([O-])c1cccnc1Sc1ccccc1C1=NCCCN1` [CBK115579C], the viability at 28.5 h, 10 µM was 96.2%. Turning to `CS(=O)(=O)c1ccc(Cn2ccnc(N3CCN(C(=O)Cc4cccs4)CC3)c2=O)cc1` [CBK153773], the viability at 28.5 h, 10 µM came out at 89.9%.

As for `O=C(O)C1CSC(c2ccccc2)N1` (centres unmarked) [CBK261008], the viability at 28.5 h, 10 µM amounted to 114%. The figure for `CC(=O)N1CCC(O)(C2(C)OC(NC3C4CC5CC(C4)CC3C5)=NC2=O)CC1` (centres unmarked) [CBK138181] is 91.8%; for `COc1ccc(C(=O)Nc2ccc(C(C)=O)cc2)cc1[N+](=O)[O-]` [CBK262457] it is 90.8%. For the compound `Cc1cc(NS(=O)(=O)c2cccc3nonc23)n(C)n1` [CBK067247], the viability at 28.5 h, 10 µM came to 93.7%. For the compound `c1ccc2c(c1)nc(-c1cscn1)n2CCCCc1nnn[nH]1` [CBK267110], the viability at 28.5 h, 10 µM is 93.7%. Consider `COCC(=O)NC1CCN(CC2(c3ccc(C)cc3)CC2)CC1` [CBK285350], for which the viability at 28.5 h, 10 µM came to 104%. For `Cc1nc2c(c(=O)[nH]1)CCN(Cc1[nH]c3ccccc3c1C)C2` [CBK283995] the value was 93%. Turning to `CCN1C(=O)CC(N2CCN(c3cc(-c4ccc(OC)cc4)nc(C)n3)CC2)C1=O` (centres unmarked) [CBK269744], the viability at 28.5 h, 10 µM worked out at 106%. For `COc1cc([N+](=O)[O-])ccc1NC(=O)CCN1C(=O)C2C3CCC(C3)C2C1=O` (centres unmarked) [CBK265141], the viability at 28.5 h, 10 µM came to 99.3%. Turning to `O=C(Nc1ccc2nc3n(c(=O)c2c1)CCCC3)C1CCCCC1` [CBK304383], the viability at 28.5 h, 10 µM worked out at 91.9%. With `CC(C)(C)OC(=O)N1CCC(CNS(=O)(=O)c2ccc3c(c2)OCCO3)CC1` [CBK076971], the viability at 28.5 h, 10 µM was found to be 90.6%. In the case of `O=C(Oc1ccc(Cl)cc1)c1cc(S(=O)(=O)N2CCOCC2)ccc1Cl` [CBK261670], the viability at 28.5 h, 10 µM stood at 99.6%. For the compound `Cn1ncc2c(NCc3cccc(Cn4cncn4)c3)ncnc21` [CBK304241], the viability at 28.5 h, 10 µM is 89.9%. For `COc1ccc(NS(=O)(=O)c2ccc3c(c2)N(CC(=O)O)C(=O)CO3)cc1NS(C)(=O)=O` [CBK297745] the value was 90.1%; for `CCc1cc(C(=O)N2CCC(Oc3ccc(F)cc3)CC2)n(C)n1` [CBK282034], 86.5%; for `Fc1ccccc1CN(CCCn1ccnc1)Cc1ccco1` [CBK282952], 109%. As to `Cc1cc(Oc2ccc(Cl)cc2Cl)nc(OCC#N)n1` [CBK019232], the viability at 28.5 h, 10 µM amounted to 96.9%. For `CN(C(=O)NC1CCN(Cc2cccc(O)c2)CC1)C1CCS(=O)(=O)C1` (centres unmarked) [CBK306538], the viability at 28.5 h, 10 µM amounted to 83.5%. `COc1ccc(OCCNC(=O)C2(c3ccc(OC)cc3)CC2)cc1` [CBK149821]: the viability at 28.5 h, 10 µM amounted to 91.8%.

As for `Cc1ccccc1CSCC(=O)Nc1ccc(S(=O)(=O)N2CCCCC2)cc1` [CBK264006], the viability at 28.5 h, 10 µM is 103%. As for `O=C1CC(c2ccc(C(=O)O)cc2)c2sccc2N1` (centres unmarked) [CBK287119], the viability at 28.5 h, 10 µM worked out at 91.9%. In the case of `Cc1cc(C)nc(N/C(=N\C(=O)c2ccccc2)N2CCC(C(N)=O)CC2)n1` [CBK263910], the viability at 28.5 h, 10 µM came out at 99.4%. Consider `CC(C)C(=O)N1CCC(n2nc(C3CC3)ccc2=O)CC1` [CBK282351], for which the viability at 28.5 h, 10 µM came out at 104%. Regarding `CC(=O)Nc1ccc(-c2cncc(Nc3ccc4c(c3)OC(F)(F)C(F)(F)O4)n2)cc1` [CBK065726], the viability at 28.5 h, 10 µM was 98.7%. The figure for `Fc1ccccc1COc1cccc(CNCCN2CCOCC2)c1` [CBK278148C] is 102%; for `COC(=O)c1ccc2c(=O)n(CCN3CCOCC3)c(=S)[nH]c2c1` [CBK268553] it is 69%; for `O=C(c1cccs1)N(Cc1ccco1)c1ccc(O)cc1` [CBK269256] it is 88.9%.
